Experimental data published in patent publication US20240150377A1, “MODULATORS OF CYSTIC FIBROSIS TRANSMEMBRANE CONDUCTANCE REGULATOR” (VERTEX PHARMACEUTICALS INCORPORATED, priority 2020, published 2024).
Where two headings read alike, the source gives them in different places.

Columns and labels:
[1] = amide bond, 13-membered ring
[2] = target: T1, CFTR (Homo sapiens, UniProt P13569); assay: Membrane potential dye, Enteroid Assay A; type: cell-based; settings: for Ent. A Max Activity: chloride transport as % of triple combination control (Enteroid Assay A); for EC50: human enteroid cells, 18-24 hours, acute 10 μM forskolin and 300 nM ivacaftor, read-out: Ent. A EC50
Summary of the method: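 % Activity: chloride transport relative to a 3 μM/3 μM corrector pair plus 300 nM acute potentiator control. Primary human enteroid cells, 18-24 h compound exposure at 37 °C; membrane potential dye (methyl oxonol) fluorescence over 15 min after forskolin (10 μM)/IBMX (100 μM)/Compound III (300 nM) stimulation in chloride-free buffer.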

[3] = target: T2, F508del (Homo sapiens, UniProt P13569, DEL508-508); assay: 3T3 assay: membrane potential optical assay for F508del correction; type: cell-based; settings: F508del NIH 3T3 cells; for Emax: NIH3T3, compared to lumacaftor in combination with acutely added 300 nM Ivacaftor, read-out: 3T3 Max Activity; for EC50: 18-24 hours at 37° C., forskolin, acutely added 300 nM Ivacaftor
T2 construct: expressed in transfected cells
Description: 1. Membrane Potential Optical Methods for Assaying F508del Modulation Properties of Compounds
The assay utilizes fluorescent voltage sensing dyes to measure changes in membrane potential using a fluorescent plate reader (e.g., FLIPR III, Molecular Devices, Inc.) as a readout for increase in functional F508del in NIH 3T3 cells. The driving force for the response is the creation of a chloride ion gradient in conjunction with channel activation by a single liquid addition step after the cells have previously been treated with compounds and subsequently loaded with a voltage sensing dye.
2. Identification of Corrector Compounds
To identify correctors of F508del, a single-addition HTS assay format was developed. This HTS assay utilizes fluorescent voltage sensing dyes to measure changes in membrane potential on the FLIPR III as a measurement for increase in gating (conductance) of F508del in F508del NIH 3T3 cells. The F508del NIH 3T3 cell cultures were incubated with the corrector compounds at a range of concentrations for 18-24 hours at 37° C., and subsequently loaded with a redistribution dye. The driving force for the response is a Cl^− ion gradient in conjunction with channel activation with forskolin in a single liquid addition step using a fluorescent plate reader such as FLIPR III.
Bath Solution #1: (in mM) NaCl 160, KCl 4.5, CaCl2) 2, MgCl2 1, HEPES 10, pH 7.4 with NaOH.
Chloride-free bath solution: Chloride salts in Bath Solution #1 (above) are substituted with gluconate salts.
NIH3T3 mouse fibroblasts stably expressing F508del are used for optical measurements of membrane potential. The cells are maintained at 37° C. in 5% CO2 and 90% humidity in Dulbecco's modified Eagle's medium supplemented with 2 mM glutamine, 10% fetal bovine serum, 1× NEAA, b-ME, 1×pen/strep, and 25 mM HEPES in 175 cm^2 culture flasks. For all optical assays, the cells were seeded at ˜20,000/well in 384-well Matrigel-coated plates. For the correction assays, the cells are cultured at 37° C. with and without compounds for 16-24 hours.

[4] = target: T1, CFTR; assay: Membrane potential dye, Enteroid Assay B; type: cell-based; settings: Table 6
Summary of the method: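 Fluorescence read over 15 min after chloride-free stimulation (10 μM forskolin, 100 μM IBMX, 300 nM Compound III) gave chloride transport, reported as % activity versus a triple-corrector/potentiator control. Beforehand, human enteroid cells had 18-24 h compound exposure at 37° C and 25 min methyl oxonol dye loading at room temperature.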

T1 sequence (P13569 with tags, fused parts or gaps DEL508-508): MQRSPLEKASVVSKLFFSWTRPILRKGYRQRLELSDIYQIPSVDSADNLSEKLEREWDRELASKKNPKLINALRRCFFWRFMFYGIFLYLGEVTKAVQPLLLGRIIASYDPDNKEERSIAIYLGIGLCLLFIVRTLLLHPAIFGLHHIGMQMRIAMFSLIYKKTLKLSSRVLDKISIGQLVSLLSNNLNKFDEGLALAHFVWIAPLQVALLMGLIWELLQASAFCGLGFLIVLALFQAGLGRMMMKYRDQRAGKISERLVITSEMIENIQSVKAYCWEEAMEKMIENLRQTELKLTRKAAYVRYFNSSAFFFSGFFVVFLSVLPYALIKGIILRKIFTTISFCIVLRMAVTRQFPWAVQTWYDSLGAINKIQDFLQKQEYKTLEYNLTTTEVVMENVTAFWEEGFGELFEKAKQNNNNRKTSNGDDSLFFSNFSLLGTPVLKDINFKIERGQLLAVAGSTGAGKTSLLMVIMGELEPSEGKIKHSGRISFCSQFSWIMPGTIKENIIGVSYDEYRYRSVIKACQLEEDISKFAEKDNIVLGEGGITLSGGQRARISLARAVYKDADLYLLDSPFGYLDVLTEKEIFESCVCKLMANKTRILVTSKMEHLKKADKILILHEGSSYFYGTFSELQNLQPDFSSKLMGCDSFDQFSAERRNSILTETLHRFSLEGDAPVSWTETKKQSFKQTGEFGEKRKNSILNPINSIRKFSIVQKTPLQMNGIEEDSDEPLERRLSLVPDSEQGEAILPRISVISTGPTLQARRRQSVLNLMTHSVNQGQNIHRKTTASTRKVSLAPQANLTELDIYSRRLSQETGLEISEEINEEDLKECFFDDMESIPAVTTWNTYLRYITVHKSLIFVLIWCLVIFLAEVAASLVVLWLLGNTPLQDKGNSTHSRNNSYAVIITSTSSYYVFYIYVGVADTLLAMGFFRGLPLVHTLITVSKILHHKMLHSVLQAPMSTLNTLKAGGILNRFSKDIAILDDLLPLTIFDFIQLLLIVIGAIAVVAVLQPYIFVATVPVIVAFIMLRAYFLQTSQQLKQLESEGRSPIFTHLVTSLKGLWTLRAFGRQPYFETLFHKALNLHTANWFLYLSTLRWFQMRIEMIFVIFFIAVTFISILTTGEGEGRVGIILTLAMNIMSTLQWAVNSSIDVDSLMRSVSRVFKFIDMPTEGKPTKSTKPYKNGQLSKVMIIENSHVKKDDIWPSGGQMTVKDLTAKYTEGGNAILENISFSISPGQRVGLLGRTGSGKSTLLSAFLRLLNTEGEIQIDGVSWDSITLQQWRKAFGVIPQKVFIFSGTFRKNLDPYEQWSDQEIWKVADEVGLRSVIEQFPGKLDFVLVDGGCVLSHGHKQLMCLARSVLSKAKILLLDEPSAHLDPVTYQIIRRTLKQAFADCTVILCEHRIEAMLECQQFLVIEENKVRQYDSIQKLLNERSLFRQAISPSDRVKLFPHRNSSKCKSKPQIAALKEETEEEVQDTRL
T2 sequence (P13569 with tags, fused parts or gaps DEL508-508): as above

Ent. A Max Activity ([2]; Table 6)	EC50 ([2]; Table 6) [nM]	Emax ([3]; Table 6) [%]	EC50 ([3]; Table 6) [nM]	SMILES	further results
+++ (+++ is >60%)	< 1000	> 60	< 1000	Cc1cccc(C)c1-c1cc2nc(n1)NS(=O)(=O)c1cccc(c1)C(=O)N(C)[C@H](CC(C)C)C(c1ccc(C(C)(C)C)cn1)O2 (stereo in doubt) [Compound 1, (10S,11R)-10-(5-tert-butyl-2-pyridyl)-6-(2,6-dimethylphenyl)-11-isobutyl-12-methyl-2,2-dioxo-9-oxa-2λ^6-thia-3,5,12,19-tetrazatricyclo[12.3.1.14,8]nonadeca-1(18),4(19),5,7,14,16-hexaen-13-one]	
+++ (+++ is >60%)	< 1000	> 60	< 1000	Cc1cccc(C)c1-c1cc2nc(n1)NS(=O)(=O)c1cccc(c1)C(=O)N(C)[C@H](CC1CCCCC1)O2 [Compound 1193]	
+++ (+++ is >60%)	< 1000	> 60	< 1000	Cc1cccc(C)c1-c1cc2nc(n1)NS(=O)(=O)c1cccc(c1)C(=O)N(CC(C)C)[C@H](CC(C)C)CO2 [Compound 865]	
+++ (+++ is >60%)	< 1000	> 60	< 1000	Cc1cccc(C)c1-c1cc2nc(n1)NS(=O)(=O)c1cccc(c1)C(=O)N(CCC1CCOCC1)[C@H](CCC1(C(F)(F)F)CC1)CO2 (single isomer, unassigned) [Compound 72, 6-(2,6-Dimethylphenyl)-2,2-dioxo-12-(2-tetrahydropyran-4-ylethyl)-11-[2-[1-(trifluoromethyl)cyclopropyl]ethyl]-9-oxa-2λ^6-thia-3,5,12,19-tetrazatricyclo[12.3.1.14,8]nonadeca-1(18),4(19),5,7,14,16-hexaen-13-one]	
+++ (+++ is >60%)	< 1000	> 60	< 1000	Cc1cccc(C)c1-c1cc2nc(n1)NS(=O)(=O)c1cccc(c1)C(=O)N(CCC1CCOCC1)[C@H](CC(C)C)CO2 [Compound 79, (11R)-6-(2,6-Dimethylphenyl)-11-isobutyl-2,2-dioxo-12-(2-tetrahydropyran-4-ylethyl)-9-oxa-2λ^6-thia-3,5,12,19-tetrazatricyclo[12.3.1.14,8]nonadeca-1(18),4(19),5,7,14,16-hexaen-13-one]	
+++ (+++ is >60%)	< 1000	> 60	< 1000	Cc1cccc(C)c1-c1cc2nc(n1)NS(=O)(=O)c1cccc(c1)C(=O)N(Cc1ccc(C#N)cc1)[C@H](CC(C)C)CO2 [Compound 78, 4-[[(11R)-6-(2,6-Dimethylphenyl)-11-isobutyl-2,2,13-trioxo-9-oxa-2λ^6-thia-3,5,12,19-tetrazatricyclo[12.3.1.14,8]nonadeca-1(18),4(19),5,7,14,16-hexaen-12-yl]methyl]benzonitrile]	

More lines, now with the values behind:

SMILES	Ent. A Max Activity ([2]; Table 6)	EC50 ([2]; Table 6) [nM]	Emax ([3]; Table 6) [%]	EC50 ([3]; Table 6) [nM]	further results
Cc1cccc(C)c1-c1cc2nc(n1)NS(=N)(=O)c1cccc(c1)C(=O)N(Cc1ncc(N3CC(C)(C)C3)cn1)[C@H](CC(C)(C)C)CO2 (single isomer, unassigned; isomer a)					ring closure, yield after HPLC ([1]; from Cc1cccc(C)c1-c1cc(OC[C@@H](CC(C)(C)C)NCc2ncc(N3CC(C)(C)C3)cn2)nc(NS(=N)(=O)c2cccc(C(=O)O)c2)n1, CDMT/NMM, DMF, 21.8 mM, 14.0 h): 9%
Cc1cccc(C)c1-c1cc2nc(n1)NS(=O)(=O)c1cccc(c1)C(=O)N(C)CC(c1ccc(CC3(C(F)(F)F)CC3)cn1)O2 (centres unmarked)					ring closure, yield after HPLC ([1]; from CNCC(Oc1cc(-c2c(C)cccc2C)nc(NS(=O)(=O)c2cccc(C(=O)O)c2)n1)c1ccc(CC2(C(F)(F)F)CC2)cn1, HATU (excess NaOtBu from SNAr), THF/DMF, 49.6 mM, 25.0 °C, 3.0 h, 2 steps): 35%
Cc1cccc(C)c1-c1cc2nc(n1)NS(=O)(=O)c1cccc(c1)C(=O)N(Cc1ccc(N3CCC(C)CC3)nc1)[C@H](CC(C)C)CO2 [Compound 975]	+++ (+++ is >60%)	< 1000	> 60	< 1000	Ent. B Max Activity ([4]; chloride transport as % of triple combination control (Enteroid Assay B)): +++ (+++ is >60%); EC50 ([4]; human enteroid cells, 18-24 hours, acute 10 μM forskolin and 300 nM ivacaftor, read-out: Ent. B EC50): < 1000 nM
COc1ccc(CN2C(=O)c3cccc(c3)S(=O)(=O)Nc3nc(cc(-c4c(C)cccc4C)n3)OC[C@H]2CC(C)C)cc1 [Compound 347]	+++ (+++ is >60%)	< 1000	> 60	< 1000	
Cc1cccc(C)c1-c1cc2nc(n1)NS(=O)(=O)c1cccc(c1)C(=O)N(CCCC1CCOCC1)[C@H](CC(C)C)CO2 [Compound 353]	+++ (+++ is >60%)	< 1000	> 60	< 1000	
Cc1cccc(C)c1-c1cc2nc(n1)NS(=O)(=O)c1cccc(c1)CN(CCC1(C(F)(F)F)CC1)[C@H](CC(C)C)CO2 [Compound 1024]					Ent. A Max Activity ([2]; Table 7): ++ (++ is 30-60%); EC50 ([2]; Table 7): < 1000 nM; Emax ([3]; Table 7): > 60%; EC50 ([3]; Table 7): < 1000 nM
Cc1cccc(C)c1-c1cc2nc(n1)NS(=O)(=O)c1cccc(c1)CN(CCC(C)(C)C)[C@H](CC(C)C)CO2 [Compound 1043]	+++ (+++ is >60%)	< 1000	> 60	< 1000	
CNC(=O)c1ccc(CN2C(=O)c3cccc(c3)S(=O)(=O)Nc3nc(cc(-c4c(C)cccc4C)n3)OC[C@H]2CC(C)C)cc1 [Compound 419]	+++ (+++ is >60%)	< 1000	> 60	< 1000	
Cc1cccc(C)c1-c1cc2nc(n1)NS(=O)(=O)c1cccc(c1)C(=O)N(CCO)[C@H](CC(C)C)CO2 [Compound 80, (11R)-6-(2,6-Dimethylphenyl)-12-(2-hydroxyethyl)-11-isobutyl-2,2-dioxo-9-oxa-2λ^6-thia-3,5,12,19-tetrazatricyclo[12.3.1.14,8]nonadeca-1(18),4(19),5,7,14,16-hexaen-13-one]	+++ (+++ is >60%)	< 1000	> 60	< 1000	
Cc1cccc(C)c1-c1cc2nc(n1)NS(=O)(=O)c1cccc(c1)C(=O)N(CCC1CCN(C(C)C)CC1)[C@H](CC(C)C)CO2 [Compound 85, (11R)-6-(2,6-Dimethylphenyl)-11-isobutyl-12-[2-(1-isopropyl-4-piperidyl)ethyl]-2,2-dioxo-9-oxa-2λ^6-thia-3,5,12,19-tetrazatricyclo[12.3.1.14,8]nonadeca-1(18),4(19),5,7,14,16-hexaen-13-one]					Ent. A Max Activity ([2]; Table 7): +++ (+++ is >60%); EC50 ([2]; Table 7): < 1000 nM; Emax ([3]; Table 7): > 60%; EC50 ([3]; Table 7): < 1000 nM
Cc1cccc(C)c1-c1cc2nc(n1)NS(=O)(=O)c1cccc(c1)C(=O)N(C)C[C@H](c1ccc(C(C)(C)C)cn1)O2 (single isomer, unassigned) [Compound 103, 10-(5-tert-butyl-2-pyridyl)-6-(2,6-dimethylphenyl)-12-methyl-2,2-dioxo-9-oxa-2λ^6-thia-3,5,12,19-tetrazatricyclo[12.3.1.14,8]nonadeca-1(18),4(19),5,7,14,16-hexaen-13-one]					Ent. A Max Activity ([2]; Table 7): +++ (+++ is >60%); EC50 ([2]; Table 7): < 1000 nM; Emax ([3]; Table 7): > 60%; EC50 ([3]; Table 7): < 1000 nM
CC(=O)N1CCC(CCN2C(=O)c3cccc(c3)S(=O)(=O)Nc3nc(cc(-c4c(C)cccc4C)n3)OC[C@H]2CC(C)C)CC1 [Compound 1107]					Ent. A Max Activity ([2]; Table 7): +++ (+++ is >60%); EC50 ([2]; Table 7): < 1000 nM; Emax ([3]; Table 7): > 60%; EC50 ([3]; Table 7): < 1000 nM
